Reference: patent US9656962B2, “Ring-contracted morphinans and the use thereof” (Purdue Pharma L.P., priority 2013, dated 2017)

Key:
[1] = target: human opioid receptor-like receptor (ORL-1) (Homo sapiens (Human), UniProt P41146); assay: ORL-1 receptor radioligand binding assay ([3H]-nociceptin); details: binding affinity, read-out: Ki (nM) ORL-1
Description: ORL-1 Receptor Binding Assay Procedure: Membranes from recombinant HEK-293 cells expressing the human opioid receptor-like receptor (ORL-1) (Perkin Elmer, Shelton, Conn.) was prepared by lysing cells in ice-cold hypotonic buffer (2.5 mM MgCl2, 50 mM HEPES, pH 7.4) (10 ml/10 cm dish) followed by homogenization with a tissue grinder/Teflon pestle. Membranes were collected by centrifugation at 30,000×g for 15 min at 4° C. and pellets resuspended in hypotonic buffer to a final concentration of 1-3 mg/ml. Protein concentrations were determined using the BioRad protein assay reagent with bovine serum albumen as standard. Aliquots of the ORL-1 receptor membranes were stored at −80° C.
Radioligand binding assays (screening and dose-displacement) use 0.1 nM [^3H]-nociceptin (Perkin Elmer, Shelton, Conn.; 87.7 Ci/mmole) with 12 μg membrane protein in a final volume of 500 μl binding buffer (10 mM MgCl2, 1 mM EDTA, 5% DMSO, 50 mM HEPES, pH 7.4). Non-specific binding was determined in the presence of […] unlabeled nociceptin (American Peptide Company). […] Fifty μl/well scintillation cocktail (Perkin Elmer, Shelton, Conn.) was added and plates are counted in a Packard Top-Count for 1 min/well. The data from screening and dose-displacement experiments were analyzed using Microsoft Excel and the curve fitting functions in GraphPad PRISM™, v. […]

κ-opioid receptor [2] = target: T1, κ-opioid receptor (Homo sapiens (Human), UniProt P41145); assay: κ-opioid receptor [35S]GTPγS functional assay, U-2 OS cells (Table 5); format: biochemical
How it was run: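 [35S]GTPγS binding in κ receptor membranes (0.026 μg/μl protein) with 10 μg/mL saponin, 3 μM GDP and 0.20 nM [35S]GTPγS in pH 7.4 HEPES/NaCl/MgCl2 buffer. Agonist incubation lasted 30 min at about 25 °C, followed by filtration and scintillation counting. Emax is expressed relative to U69,593.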

μ-opioid receptor [3] = target: T2, μ-opioid receptor (Homo sapiens (Human), UniProt P35372); assay: μ-opioid receptor [35S]GTPγS functional assay, HEK-293 or CHO cells (Table 4); format: biochemical; details: relative to DAMGO
How it was run: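 Membranes from HEK-293, CHO or U-2 OS cells (or commercial) expressing recombinant μ receptor; 0.20 nM [35S]GTPγS, 3 mM GDP, saponin, in 100 mM NaCl/10 mM MgCl2/20 mM HEPES pH 7.4.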

κ-opioid receptor [4] = target: T1, κ-opioid receptor; assay: κ-opioid receptor [35S]GTPγS functional assay, HEK-293 or CHO cells (Table 4); format: biochemical
Description: (§1) κ-Opioid Receptor Functional Assay Procedures: Functional [^35S]GTPγS binding assays were conducted as follows. κ opioid receptor membrane solution was prepared by sequentially adding final concentrations of 0.026 μg/μl κ membrane protein (in-house), 10 μg/mL saponin, 3 μM GDP and 0.20 nM [^35S]GTPγS to binding buffer (100 mM NaCl, 10 mM MgCl2, 20 mM HEPES, pH 7.4) on ice. The prepared membrane solution (190 μl/well) was transferred to 96-shallow well polypropylene plates containing 10 μl of 20× concentrated stock solutions of agonist prepared in DMSO. Plates were incubated for 30 min at a temperature of about 25° C. with shaking. Reactions were terminated by rapid filtration onto 96-well Unifilter GF/B filter plates (Perkin Elmer, Shelton, Conn.) using a 96-well tissue harvester (Packard) and followed by three filtration washes with 200 μl ice-cold binding buffer (10 mM NaH2PO4, 10 mM Na2HPO4, pH 7.4). Filter plates were subsequently dried at 50° C. for 2-3 hours. Fifty μl/well scintillation cocktail (Perkin Elmer, Shelton, Conn.) was added and plates were counted in a Packard Top-Count for 1 min/well.
κ GTP Emax (%) is the maximal effect elicited by a compound relative to the effect elicited by U69,593.
In TABLE 4, activity response of certain Compounds of the Invention to the μ- and κ-opioid receptors was determined as described above for functional assays using HEK-293 or CHO cells.

[5] = target: recombinant human kappa opioid receptor (κ) (Homo sapiens (Human), UniProt P41145); assay: κ-opioid receptor radioligand binding assay ([3H]-U69,593); details: binding affinity
Description: κ-Opioid Receptor Binding Assay Procedures: Membranes from HEK-293 cells, CHO cells or U-2 OS cells expressing the recombinant human kappa opioid receptor (κ) were prepared by lysing cells in ice cold hypotonic buffer (2.5 mM MgCl2, 50 mM HEPES, pH 7.4) (10 mL/10 cm dish) followed by homogenization with a tissue grinder/Teflon pestle. Membranes from a cell line naturally expressing kappa opioid receptor can also be used. Membranes were collected by centrifugation at 30,000×g for 15 min at 4° C. and pellets were resuspended in hypotonic buffer to a final concentration of 1-3 mg/mL. Protein concentrations were determined using the BioRad protein assay reagent with bovine serum albumen as standard. Aliquots of κ receptor membranes were stored at −80° C.
Radioligand dose displacement assays used 0.4 nM [^3H]-U69,593 (GE Healthcare, Piscataway, N.J.; 40 Ci/mmole) with 15 μg membrane protein (recombinant opioid receptor expressed in HEK 293 cells; in-house prep) in a final volume of 200 μl binding buffer (5% DMSO, 50 mM Trizma base, pH 7.4). Non-specific binding was determined in the presence of 10 μM unlabeled naloxone or U69,593. All reactions were performed in 96-well polypropylene plates for 1 hour at a temperature of about 25° C. Binding reactions were terminated by rapid filtration onto 96-well Unifilter GF/C filter plates (Perkin Elmer, Shelton, Conn.) presoaked in 0.5% polyethylenimine (Sigma). Harvesting was performed using a 96-well tissue harvester (Perkin Elmer, Shelton, Conn.) followed by five filtration washes with 200 μl ice-cold binding buffer. Filter plates were subsequently dried at 50° C. for 1-2 hours. Fifty μl/well scintillation cocktail (Perkin Elmer, Shelton, Conn.) was added and plates were counted in a Packard Top-Count for 1 min/well.

μ-opioid receptor [6] = target: T2, μ-opioid receptor; assay: μ-opioid receptor [35S]GTPγS functional assay, U-2 OS cells (Table 5); format: biochemical; details: relative to DAMGO
How it was run: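 Membranes (0.026 mg/mL) from cells expressing recombinant human μ-opioid receptor in a U-2 OS background were incubated with 0.20 nM [35S]GTPγS, 3 mM GDP and saponin in 20 mM HEPES pH 7.4, 100 mM NaCl, 10 mM MgCl2 for 30 min at about 25 °C. Filter-bound radioactivity counted; sigmoidal dose-response fits gave values, Emax relative to DAMGO.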

μ-opioid receptor [7] = target: T2, μ-opioid receptor; assay: μ-opioid receptor [35S]GTPγS functional assay, HEK-293 cells (Table 6); format: biochemical
How it was run: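 [35S]GTPγS (0.20 nM) binding in HEK-293 membranes expressing recombinant receptor (0.026 mg/mL protein), with GDP (3 mM) and saponin, HEPES buffer pH 7.4, 30 min at about 25° C. Bound radioactivity collected by filtration and counted. Emax (%) expressed relative to DAMGO from sigmoidal dose-response fits.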

κ-opioid receptor [8] = target: T1, κ-opioid receptor; assay: κ-opioid receptor [35S]GTPγS functional assay, HEK-293 cells (Table 6); format: biochemical
Description: as §1, with “min/well. […]” for “min/well.”
The following TABLE 6 provides results on the activity response of certain Compounds of the Invention at the μ- and κ-opioid receptors determined as described above using HEK-293 cells.

SMILES | Ki [1] [nM] | Emax (κ-opioid receptor [2]; relative to U69,593) [%] | EC50 (κ-opioid receptor [2]; κ GTP) [nM] | Emax (μ-opioid receptor [3]) [%] | Emax (κ-opioid receptor [4]; relative to U69,593) [%] | EC50 (κ-opioid receptor [4]; κ GTP) [nM] | Ki [5] [nM] | Emax (μ-opioid receptor [6]) [%] | Emax (μ-opioid receptor [7]; relative to DAMGO) [%] | EC50 (μ-opioid receptor [7]; μ GTP) [nM] | Emax (κ-opioid receptor [8]; relative to U69,593) [%] | EC50 (κ-opioid receptor [8]; κ GTP) [nM]
N=C(N)NCCNC(=O)[C@@H]1C[C@]23CCN(CC4CC4)[C@H](Cc4ccc(O)cc42)[C@]3(O)C1 [Compound 6, (2R,3aS,4R,9bS)-12-(cyclopropylmethyl)-N-(2-guanidinoethyl)-3a,8-dihydroxy-1,2,3,3a,4,5-hexahydro-4,9b-(epimino-ethano)cyclopenta[a]naphthalene-2-carboxamide] | 10300 ± 2140 | 98 ± 3.21 | 0.87 ± 0.16 | 0 | 48.6 ± 0.98 | 0.86 ± 0.16 | 0.098 ± 0.032 | 57 ± 2.08 |  |  |  | 
CN1CC[C@]23C[C@H](C(=O)NCCc4ccccc4)C[C@@]2(O)[C@H]1Cc1ccc(O)cc13 [Compound 108, (2S,3aS,4R,9bS)-3a,8-dihydroxy-12-methyl-N-phenethyl-1,2,3,3a,4,5-hexahydro-4,9b-(epiminoethano)cyclo-penta[a]naphthalene-2-carboxamide] |  |  |  |  |  |  | 9.29 ± 2.14 |  | 83.3 ± 5.17 | 12.4 ± 2.76 | 40.6 ± 3.3 | 138 ± 35
